Test results from patent US20230405003A1, “APPLICATION OF THYMIDINE DERIVATIVE IN PREPARATION OF DRUGS” (ONQUALITY PHARMACEUTICALS CHINA LTD., priority 2020, published 2023).

Tests used:
HaCaT cells = assay: Relief of 5-FU proliferative toxicity to HaCaT cells (CCK-8 cell survival); format: cell-based; conditions: for activation at 1 µM / activation at 10 µM / activation at 100 µM / activation at 500 µM / activation at 1000 µM: Homo sapiens, HaCaT, increase vs Group of 5-FU, 5-FU 20 μM, 48 h, read-out: Cell Survival Rate; for activation at 1 µM: compound 1 μM; for activation at 10 µM: compound 10 μM; for activation at 100 µM: compound 100 μM; for activation at 500 µM: compound 500 μM; for activation at 1000 µM: compound 1000 μM; for Cell Survival Rate (increased percentage of cell survival compared with the Group of 5-FU): 5-Fu 20 μM, HaCaT cells
Procedure: The cultured skin cell HaCaTs were digested, counted, and inoculated into a 96-well plate with 5000-10000 cells in each well. After 24 h of culture, the wells were divided into Group of blank solvent control, Group of 5-FU, Group of 5-FU+thymidine derivative, Group of 5-FU+the combination of thymidine derivative and uridine derivative. […] adding a solution of 5-FU and a solution of thymidine derivative (the final concentrations of 5-FU and thymidine derivative are shown in Table 3, the solution of thymidine is an aqueous solution, while the solutions of thymidine derivatives are all DMSO solutions); Group of 5-FU+the combination of thymidine derivative and uridine derivative: adding a solution of 5-FU and a mixed solution of thymidine derivative and uridine derivative (the final concentrations of the solution of 5-FU and the mixed solution of thymidine derivative+uridine derivative are shown in Table 3, the solution of thymidine is an aqueous solution, while the mixed solutions of thymidine derivative+uridine derivative are all DMSO solutions); Group of blank solvent control: adding the same type of solution as those of the corresponding Group of 5-FU or Group of 5-FU+thymidine derivative (or the mixed solution of thymidine derivative+uridine derivative) in equal volume. Group of blank solvent control was used as control to exclude the influence of the solvents in Group of 5-FU and Group of 5-FU+thymidine derivative (or the mixed solution of thymidine derivative+uridine derivative) on the results. After additional 48 hours of culture, a Cell Counting Kit-8 (CCK-8) detection kit (C0037, purchased from Shanghai Beyotime Biotechnology) is used to determine the cell survival rate, thereby calculating the proliferative toxicity of 5-Fu/5-DFUR on cells and the relieving effect of the thymidine derivative (or the mixed solution of thymidine derivative+uridine derivative) on the proliferative toxicity. Using GraphPad Prism 6.0 software, the results were statistically analyzed by t-test and plotted.
(§1) Table 3 lists the combinations of 5-FU and thymidine derivative (or the mixed solution of thymidine derivative+uridine derivative), and the corresponding experimental results (wherein the data in the column of cell survival indicate the corresponding increased percentage of the cell survivals of Group of 5-FU+thymidine derivative or Group of 5-FU+the combination of thymidine derivative and uridine derivative compared with the Group of 5-FU). FIGS. 3-10 list the experimental results of several representative compounds.
The effect of thymidine derivative or a combination of thymidine derivative and uridine derivative on relieving the proliferative toxicity of a chemotherapeutical drug (5-FU) to HaCaT cells was tested according to the method in Examples 2-29. The test thymidine derivative or the combination of thymidine derivative and uridine derivative, as well as the final concentration of the test compounds were shown in Table 7.
as §1, with “7” for “3”, “15-21” for “3-10”, “exemplary” for “representative”

[1] = system: hand-foot syndrome caused by capecitabine in SD rats; assay: Rat model of hand-foot syndrome caused by capecitabine, gel application; format: in vivo; conditions: capecitabine 4000 mg/kg once daily, 40 days; for Control Rate Forepaws / Control Rate Hindpaws: rats
Procedure: A rat animal model was established. 6-week aged female SD rats were administered with capecitabine by daily gavage. The degree of hand-foot syndrome in paws is similar, and there was no difference between the left and right paws. Similar to the human body, rats developed hand-foot syndrome after oral administration of capecitabine. The causes of the two are the same, and the disorder is also very similar. Therefore, rats are very good animal models for simulating the hand-foot syndrome caused by capecitabine.
After SD rats were fed and adapted for one week (about 200 g), the rats were divided into groups, with 10 rats in each group. Then, the rats were subject to gavage administration. Capecitabine was dissolved in a 1:1 mixed solution of castor oil and ethanol and diluted for three times with PBS buffer. After gavage, the rats were fixed with a fixed cylinder, and a gel of thymidine derivative (or a compounded gel of thymidine derivative and uridine derivative) was applied to double hind paws (about 1 cm*3 cm) of the rats in group of administration (the types and concentrations are shown in Table 4), and a blank gel was applied to the group of blank (as a blank control). After approximately 4 hours of application, the rats were released after 4 hours, wiped with clean water to remove any residual drug at the application site, and allowed back to the cage. The thymidine derivative gel (or the compounded gel of thymidine derivative and uridine derivative) was administered with gavage every day. The gavage and application tests are repeated daily until the group of blank has developed obvious hand-foot syndrome.
Table 4 lists the combinations of animal experiments of capecitabine and the thymidine derivative gel (or the compounded gel of thymidine derivative and uridine derivative) and the corresponding experimental results (wherein, the data in the column of control rate=the occurrence rate of hand-foot syndrome in group of blank—the occurrence rate of hand-foot syndrome in group of administration). […]

SMILES | activation at 1 µM (HaCaT cells) [%] | activation at 10 µM (HaCaT cells) [%] | activation at 100 µM (HaCaT cells) [%] | activation at 500 µM (HaCaT cells) [%] | activation at 1000 µM (HaCaT cells) [%] | Control Rate ([1]; SD rats, gel 2 wt% on hind paws) [%] | Cell Survival Rate (increased percentage of cell survival compared with the Group of 5-FU) (HaCaT cells; selected compound final concentration 0.8 μM) | Cell Survival Rate (increased percentage of cell survival compared with the Group of 5-FU) (HaCaT cells; selected compound final concentration 1.6 μM) | Cell Survival Rate (increased percentage of cell survival compared with the Group of 5-FU) (HaCaT cells; selected compound final concentration 3.13 μM) | Cell Survival Rate (increased percentage of cell survival compared with the Group of 5-FU) (HaCaT cells; selected compound final concentration 6.25 μM) | Cell Survival Rate (increased percentage of cell survival compared with the Group of 5-FU) (HaCaT cells; selected compound final concentration 12.5 μM) | Cell Survival Rate (increased percentage of cell survival compared with the Group of 5-FU) (HaCaT cells; selected compound final concentration 25 μM) | Cell Survival Rate (increased percentage of cell survival compared with the Group of 5-FU) (HaCaT cells; selected compound final concentration 50 μM) | Cell Survival Rate (increased percentage of cell survival compared with the Group of 5-FU) (HaCaT cells; selected compound final concentration 100 μM) | Control Rate Forepaws ([1]; gel 1 wt%) [%] | Control Rate Hindpaws ([1]; gel 1 wt%) [%] | Control Rate Forepaws ([1]; gel 5 wt%) [%] | Control Rate Hindpaws ([1]; gel 5 wt%) [%]
CCC(=O)OC[C@H]1O[C@@H](n2cc(C)c(=O)[nH]c2=O)C[C@@H]1OC(=O)CC [T5] | 18 to 24 | 55 to 65 | 77 to 84 | 78 to 85 | 35 to 45 | 30.00 |  |  |  |  |  |  |  |  |  |  |  | 
Cc1ccc(Nc2c(F)cccc2Cl)c(CC(=O)OC[C@H]2O[C@@H](n3cc(C)c(=O)[nH]c3=O)C[C@@H]2O)c1 [T35] |  |  |  |  |  |  | 23%-31% | 25%-33% | 42%-48% | 64%-70% | 95%-101% | 84%-91% | 85%-92% | 39%-47% | 25 | 37.50 | 75.00 | 88
Cc1cn([C@H]2C[C@H](OC(=O)NC3CC3)[C@@H](COC(=O)NC3CC3)O2)c(=O)[nH]c1=O [T15] | 13 to 20 | 13 to 20 | 20 to 30 | 25 to 35 | 9 to 16 |  |  |  |  |  |  |  |  |  |  |  |  | 
